Experimental data as given in PubChem BioAssay (NCI).
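All cell lines were grown in 96-well plates and treated with compound for 48 hours. GI50 is the concentration that inhibits growth by half. TGI is the concentration that stops growth completely.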

Assays:
Test in all cases: NCI-60 cell line screen, 48 h
[1] = system: M14 melanoma
[2] = system: MDA-MB-435
[3] = system: 786-0 renal
[4] = system: IGROV1 ovarian
[5] = system: OVCAR-4 ovarian
[6] = system: K-562 leukemia
[7] = system: HCT-15 colon
[8] = system: PC-3 prostate
[9] = system: T-47D breast
[10] = system: NCI/ADR-RES ovarian
[11] = system: NCI-H522 lung
[12] = system: SW-620 colon
[13] = system: SNB-75 CNS
[14] = system: HOP-92 NSCLC
[15] = system: HS 578T breast
[16] = system: NCI-H23 lung
[17] = system: SN12C renal
[18] = system: RXF 393 renal
[19] = system: DU-145 prostate
[20] = system: LOX IMVI melanoma
[21] = system: BT-549 breast
[22] = system: SF-295 CNS
[23] = system: SK-MEL-28 melanoma
[24] = system: KM12 colon
[25] = system: UO-31 renal
[26] = system: SR leukemia
[27] = system: NCI-H226 lung
[28] = system: OVCAR-3 ovarian
[29] = system: TK-10 renal
[30] = system: SK-OV-3 ovarian
[31] = system: OVCAR-8 ovarian
[32] = system: HCT-116 colon
[33] = system: HT29 colon
[34] = system: A549 NSCLC
[35] = system: NCI-H460 lung
[36] = system: UACC-257 melanoma
[37] = system: SK-MEL-5 melanoma
[38] = system: MCF7 breast
[39] = system: MDA-MB-231 breast
[40] = system: HCC-2998 colon
[41] = system: SF-268 CNS
[42] = system: ACHN renal
[43] = system: EKVX NSCLC
[44] = system: HL-60(TB) leukemia
[45] = system: MDA-MB-468 breast
[46] = system: UACC-62 melanoma
[47] = system: MALME-3M melanoma
[48] = system: SNB-19 CNS
[49] = system: CAKI-1 renal
[50] = system: MOLT-4 leukemia
[51] = system: COLO 205 colon
[52] = system: U251 CNS
[53] = system: SF-539 CNS
[54] = system: CCRF-CEM leukemia
[55] = system: RPMI-8226 leukemia
[56] = system: OVCAR-5 ovarian
[57] = system: SK-MEL-2 melanoma
[58] = system: A498 renal
[59] = system: HOP-62 NSCLC

CN1CCN(c2ccc(C(=O)/C=C/c3ccc(OC(F)F)cc3)cc2)CC1
GI50 [1]: 12.3 µM
TGI [1]: 38.6 µM
GI50 [2]: 3 µM
TGI [2]: 10.7 µM
GI50 [3]: 15.3 µM
TGI [3]: 39.6 µM
GI50 [4]: 12.1 µM
TGI [4]: 25.2 µM
GI50 [5]: 14.4 µM
TGI [5]: 33.8 µM
GI50 [6]: 2.8 µM
TGI [6]: > 100 µM
GI50 [7]: 6.88 µM
TGI [7]: 19.7 µM
GI50 [8]: 10.3 µM
TGI [8]: 26.5 µM
GI50 [9]: 15.5 µM
TGI [9]: 38.4 µM
GI50 [10]: 13.9 µM
TGI [10]: 27.3 µM
GI50 [11]: 15.4 µM
TGI [11]: 32.3 µM
GI50 [12]: 4.98 µM
TGI [12]: 18.5 µM
GI50 [13]: 4.85 µM
TGI [13]: 20.3 µM
GI50 [14]: 6.21 µM
TGI [14]: 20.9 µM
GI50 [15]: 14.9 µM
TGI [15]: 46.2 µM
GI50 [16]: 11.8 µM
TGI [16]: 24.3 µM
GI50 [17]: 13.5 µM
TGI [17]: 26.3 µM
GI50 [18]: 4.34 µM
TGI [18]: 17.4 µM
GI50 [19]: 13.6 µM
TGI [19]: 26.7 µM
GI50 [20]: 3.53 µM
TGI [20]: 13 µM
GI50 [21]: 13 µM
TGI [21]: 29 µM
GI50 [22]: 12.3 µM
TGI [22]: 24.7 µM
GI50 [23]: 15.3 µM
TGI [23]: 28.6 µM
GI50 [24]: 5.2 µM
TGI [24]: 22.1 µM
GI50 [25]: 11 µM
TGI [25]: 23 µM
GI50 [26]: 1.96 µM
TGI [26]: > 100 µM
GI50 [27]: 10.8 µM
TGI [27]: 24.3 µM
GI50 [28]: 12.1 µM
TGI [28]: 25.5 µM
GI50 [29]: 14.8 µM
TGI [29]: 29.6 µM
GI50 [30]: 13.9 µM
TGI [30]: 27.6 µM
GI50 [31]: 14.2 µM
TGI [31]: 27.8 µM
GI50 [32]: 2.87 µM
TGI [32]: > 100 µM
GI50 [33]: 3.41 µM
TGI [33]: 15.3 µM
GI50 [34]: 11.7 µM
TGI [34]: 25.8 µM
GI50 [35]: 14.4 µM
TGI [35]: 30.1 µM
GI50 [36]: 13.8 µM
TGI [36]: 27.2 µM
GI50 [37]: 8.94 µM
TGI [37]: 21.1 µM
GI50 [38]: 2.74 µM
TGI [38]: 11 µM
GI50 [39]: 13.5 µM
TGI [39]: 26.3 µM
GI50 [40]: 3.76 µM
TGI [40]: 14 µM
GI50 [41]: 18 µM
TGI [41]: 41.3 µM
GI50 [42]: 14.8 µM
TGI [42]: 27.9 µM
GI50 [43]: 13.1 µM
TGI [43]: 25.8 µM
GI50 [44]: 4.7 µM
TGI [44]: 33.4 µM
GI50 [45]: 3.52 µM
TGI [45]: 14.5 µM
GI50 [46]: 14 µM
TGI [46]: 27 µM
GI50 [47]: 13.1 µM
TGI [47]: 25.8 µM
GI50 [48]: 14.7 µM
TGI [48]: 27.9 µM
GI50 [49]: 13.9 µM
TGI [49]: 27.2 µM
GI50 [50]: 11.6 µM
TGI [50]: 54.9 µM
GI50 [51]: 14.2 µM
TGI [51]: 30.9 µM
GI50 [52]: 9.79 µM
TGI [52]: 27.5 µM
GI50 [53]: 12.3 µM
TGI [53]: 24.7 µM
GI50 [54]: 4.3 µM
TGI [54]: 37.7 µM
GI50 [55]: 2.6 µM
TGI [55]: 9.85 µM
GI50 [56]: 14.8 µM
TGI [56]: 28.1 µM
GI50 [57]: 16.6 µM
TGI [57]: 31.9 µM
GI50 [58]: 14.2 µM
TGI [58]: 27.8 µM
GI50 [59]: 15.4 µM
TGI [59]: 30.4 µM
